Patent publication US20250145665A1, “MACROCYCLIC PEPTIDES USEFUL AS MODULATORS OF TNF ALPHA” (Bristol-Myers Squibb Company, priority 2023, published 2025)
Positions of bridges follow the written chain, without caps; N, C: chain ends. Non-standard residues stand in square brackets, D forms with d. Residues, ends and D or L forms follow the SMILES beside them. Ala(morpholin-4-yl) = N[C@@H](CN1CCOCC1)C(=O)O; Phe(4-CH2NH2) = NCc1ccc(C[C@H](N)C(=O)O)cc1; Bip = N[C@@H](Cc1ccc(-c2ccccc2)cc1)C(=O)O; Phe(3-OMe) = COc1cccc(C[C@H](N)C(=O)O)c1; Phe(4-NH2) = Nc1ccc(C[C@H](N)C(=O)O)cc1; Phe(4-F) = N[C@@H](Cc1ccc(F)cc1)C(=O)O; Phe(2-F) = N[C@@H](Cc1ccccc1F)C(=O)O; Val(3-OH) = CC(C)(O)[C@H](N)C(=O)O; Hyp = O=C(O)[C@@H]1C[C@@H](O)CN1; 3Pal = N[C@@H](Cc1cccnc1)C(=O)O; Tic = O=C(O)[C@@H]1Cc2ccccc2CN1; Aze = O=C(O)[C@@H]1CCN1; Sar = CNCC(=O)O

Biological target: TNFα (Homo sapiens, UniProt P01375)
Sequence (P01375 77-233 limits assumed): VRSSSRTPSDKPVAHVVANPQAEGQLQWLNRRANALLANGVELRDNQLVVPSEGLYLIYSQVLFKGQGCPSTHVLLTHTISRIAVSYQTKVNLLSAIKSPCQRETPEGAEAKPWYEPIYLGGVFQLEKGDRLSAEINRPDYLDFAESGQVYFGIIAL
Experiment: TNF-Induced HEK-Blue Assay
Type: cell-based
Details: HEK-Blue-CD40L cells, NF-kB-driven secreted alkaline phosphatase reporter; TNFα 0.5 ng/ml; 18 h; read-out: TNF induced HEK-Blue assay IC50 value

`CC(C)C[C@@H]1NC(=O)[C@H](CCCNC(=N)N)NC(=O)[C@H](C(C)C)NC(=O)[C@@H]2CCCN2C(=O)[C@H](Cc2ccc(N)cc2)NC(=O)[C@H](CCCNC(=N)N)NC(=O)[C@H](CC(=O)O)NC(=O)[C@@H]2CCCN2C(=O)CN(C)C(=O)[C@H](Cc2ccc(-c3ccccc3)cc2)NC(=O)[C@H](Cc2ccc(-c3ccccc3)cc2)NC(=O)[C@H](CN2CCOCC2)NC(=O)CSC[C@@H](C(=O)NCC(N)=O)NC1=O` [Example 55] ({CH2CO}-[Ala(morpholin-4-yl)][Bip][Bip][Sar]PDR[Phe(4-NH2)]PVRLCG-NH2; thioether N-13) showed an IC50 of 50 to 200 nM.

For `CC(C)C[C@@H]1NC(=O)[C@H](CCCNC(=N)N)NC(=O)[C@H](C(C)C)NC(=O)[C@@H]2CCCN2C(=O)[C@H](Cc2ccc(O)cc2)NC(=O)[C@H](CCCNC(=N)N)NC(=O)[C@H](CC(=O)O)NC(=O)[C@@H]2CCCN2C(=O)CN(C)C(=O)[C@H](Cc2ccc(-c3ccccc3)cc2)NC(=O)[C@H](Cc2ccc(-c3ccccc3)cc2)NC(=O)[C@H](CN2CCOCC2)NC(=O)CSC[C@@H](C(=O)NCC(N)=O)NC1=O` [Example 56] ({CH2CO}-[Ala(morpholin-4-yl)][Bip][Bip][Sar]PDRYPVRLCG-NH2; thioether N-13), the IC50 was 50 to 200 nM.

`CC(C)C[C@@H]1NC(=O)[C@H](CCCNC(=N)N)NC(=O)[C@H](C(C)C)NC(=O)[C@@H]2CCCN2C(=O)[C@H](Cc2ccc(CN)cc2)NC(=O)[C@H](CCCNC(=N)N)NC(=O)[C@H](CC(=O)O)NC(=O)[C@@H]2CCCN2C(=O)CN(C)C(=O)[C@H](Cc2ccc(-c3ccccc3)cc2)NC(=O)[C@H](Cc2ccc(-c3ccccc3)cc2)NC(=O)[C@H](C(C)(C)O)NC(=O)CSC[C@@H](C(=O)NCC(N)=O)NC1=O` [Example 57] ({CH2CO}-[Val(3-OH)][Bip][Bip][Sar]PDR[Phe(4-CH2NH2)]PVRLCG-NH2; thioether N-13) showed an IC50 of 50 to 200 nM.

With `CC(C)C[C@@H]1NC(=O)[C@H](CCCNC(=N)N)NC(=O)[C@H](C(C)C)NC(=O)[C@@H]2CCCN2C(=O)[C@H](Cc2ccc(F)cc2)NC(=O)[C@H](CCCNC(=N)N)NC(=O)[C@H](CC(=O)O)NC(=O)[C@@H]2CCCN2C(=O)CN(C)C(=O)[C@H](Cc2ccc(-c3ccccc3)cc2)NC(=O)[C@H](Cc2ccc(-c3ccccc3)cc2)NC(=O)[C@H](C(C)(C)O)NC(=O)CSC[C@@H](C(=O)NCC(N)=O)NC1=O` [Example 58] ({CH2CO}-[Val(3-OH)][Bip][Bip][Sar]PDR[Phe(4-F)]PVRLCG-NH2; thioether N-13) the IC50 was 50 to 200 nM.

Work on `CC(C)C[C@@H]1NC(=O)[C@H](CCCNC(=N)N)NC(=O)[C@H](C(C)C)NC(=O)[C@@H]2CCCN2C(=O)[C@H](Cc2ccccc2F)NC(=O)[C@H](CCCNC(=N)N)NC(=O)[C@H](CC(=O)O)NC(=O)[C@@H]2CCCN2C(=O)CN(C)C(=O)[C@H](Cc2ccc(-c3ccccc3)cc2)NC(=O)[C@H](Cc2ccc(-c3ccccc3)cc2)NC(=O)[C@H](C(C)(C)O)NC(=O)CSC[C@@H](C(=O)NCC(N)=O)NC1=O` [Example 59] ({CH2CO}-[Val(3-OH)][Bip][Bip][Sar]PDR[Phe(2-F)]PVRLCG-NH2; thioether N-13) yielded an IC50 of 200 to 2000 nM.

Work on `CC(C)C[C@@H]1NC(=O)[C@H](CCCNC(=N)N)NC(=O)[C@H](C(C)C)NC(=O)[C@@H]2CCCN2C(=O)[C@H](Cc2cccnc2)NC(=O)[C@H](CCCNC(=N)N)NC(=O)[C@H](CC(=O)O)NC(=O)[C@@H]2CCCN2C(=O)CN(C)C(=O)[C@H](Cc2ccc(-c3ccccc3)cc2)NC(=O)[C@H](Cc2ccc(-c3ccccc3)cc2)NC(=O)[C@H](C(C)(C)O)NC(=O)CSC[C@@H](C(=O)NCC(N)=O)NC1=O` [Example 60] ({CH2CO}-[Val(3-OH)][Bip][Bip][Sar]PDR[3Pal]PVRLCG-NH2; thioether N-13) yielded an IC50 of 200 to 2000 nM.

For `CC(C)C[C@@H]1NC(=O)[C@H](CCCNC(=N)N)NC(=O)[C@H](C(C)C)NC(=O)[C@@H]2CCCN2C(=O)[C@H](Cc2ccc(N)cc2)NC(=O)[C@H](CCCNC(=N)N)NC(=O)[C@H](CC(=O)O)NC(=O)[C@@H]2CCCN2C(=O)CN(C)C(=O)[C@H](Cc2ccc(-c3ccccc3)cc2)NC(=O)[C@H](Cc2ccc(-c3ccccc3)cc2)NC(=O)[C@H](C(C)(C)O)NC(=O)CSC[C@@H](C(=O)NCC(N)=O)NC1=O` [Example 61] ({CH2CO}-[Val(3-OH)][Bip][Bip][Sar]PDR[Phe(4-NH2)]PVRLCG-NH2; thioether N-13), the IC50 was 200 to 2000 nM.

In the case of `CC(C)C[C@@H]1NC(=O)[C@H](Cc2ccc(O)cc2)NC(=O)[C@H](C(C)C)NC(=O)[C@@H]2CCCN2C(=O)[C@H](C(C)C)NC(=O)[C@@H](CCCNC(=N)N)NC(=O)[C@H](CC(=O)O)NC(=O)[C@H](Cc2ccc(O)cc2)NC(=O)CN(C)C(=O)[C@H](Cc2ccc(-c3ccccc3)cc2)NC(=O)[C@H](Cc2ccc(-c3ccccc3)cc2)NC(=O)[C@H](Cc2ccccc2)NC(=O)CSC[C@@H](C(=O)NCC(N)=O)NC1=O` [Example 62] ({CH2CO}-F[Bip][Bip][Sar]YD[dR]VPVYLCG-NH2; thioether N-13), the IC50 is reported as 50 to 200 nM.

For `COc1cccc(C[C@@H]2NC(=O)[C@H](C(C)C)NC(=O)[C@@H]3CCCN3C(=O)[C@H](C(C)C)NC(=O)[C@H](CCCNC(=N)N)NC(=O)[C@H](CC(=O)O)NC(=O)[C@@H]3CCCN3C(=O)CN(C)C(=O)[C@H](Cc3ccc(-c4ccccc4)cc3)NC(=O)[C@H](Cc3ccc(-c4ccccc4)cc3)NC(=O)[C@H](Cc3ccccc3)NC(=O)CSC[C@@H](C(=O)NCC(N)=O)NC(=O)[C@H](CC(C)C)NC2=O)c1` [Example 63] ({CH2CO}-F[Bip][Bip][Sar]PDRVPV[Phe(3-OMe)]LCG-NH2; thioether N-13), the IC50 was 200 to 2000 nM.

Compound `CC(C)C[C@@H]1NC(=O)[C@H](Cc2ccc(O)cc2)NC(=O)[C@H](C(C)C)NC(=O)[C@@H]2CCCN2C(=O)[C@H](C(C)C)NC(=O)[C@H](CCCNC(=N)N)NC(=O)[C@H](CC(=O)O)NC(=O)[C@@H]2CCCN2C(=O)CN(C)C(=O)[C@H](Cc2ccc(-c3ccccc3)cc2)NC(=O)[C@H](Cc2ccc(-c3ccccc3)cc2)NC(=O)[C@H](C(C)(C)O)NC(=O)CSC[C@@H](C(=O)NCC(N)=O)NC1=O` [Example 64] ({CH2CO}-[Val(3-OH)][Bip][Bip][Sar]PDRVPVYLCG-NH2; thioether N-13) has an IC50 of 200 to 2000 nM.

In the case of `CC(C)C[C@@H]1NC(=O)[C@H](CCCNC(=N)N)NC(=O)[C@H](C(C)C)NC(=O)[C@@H]2CCCN2C(=O)[C@H](C(C)C)NC(=O)[C@H](CCCNC(=N)N)NC(=O)[C@H](CC(=O)O)NC(=O)[C@H](Cc2ccc(O)cc2)NC(=O)CN(C)C(=O)[C@H](Cc2ccc(-c3ccccc3)cc2)NC(=O)[C@H](Cc2ccc(-c3ccccc3)cc2)NC(=O)[C@H](C(C)(C)O)NC(=O)CSC[C@@H](C(=O)NCC(N)=O)NC1=O` [Example 65] ({CH2CO}-[Val(3-OH)][Bip][Bip][Sar]YDRVPVRLCG-NH2; thioether N-13), the IC50 is reported as 50 to 200 nM.

`CC(C)C[C@@H]1NC(=O)[C@H](CCCNC(=N)N)NC(=O)[C@H](C(C)C)NC(=O)[C@@H]2CCCN2C(=O)[C@H](CC(N)=O)NC(=O)[C@H](CCCNC(=N)N)NC(=O)[C@H](CC(=O)O)NC(=O)[C@@H]2CCCN2C(=O)CN(C)C(=O)[C@H](Cc2ccc(-c3ccccc3)cc2)NC(=O)[C@H](Cc2ccc(-c3ccccc3)cc2)NC(=O)[C@H](CN2CCOCC2)NC(=O)CSC[C@@H](C(=O)NCC(N)=O)NC1=O` [Example 67] ({CH2CO}-[Ala(morpholin-4-yl)][Bip][Bip][Sar]PDRNPVRLCG-NH2; thioether N-13) was tested, and the IC50 was 200 to 2000 nM.

`CC(C)C[C@@H]1NC(=O)[C@H](Cc2ccc(O)cc2)NC(=O)[C@H](C(C)C)NC(=O)[C@@H]2CCCN2C(=O)[C@H](C(C)C)NC(=O)[C@@H](CCCNC(=N)N)NC(=O)[C@H](CC(=O)O)NC(=O)[C@H](Cc2ccc(O)cc2)NC(=O)CN(C)C(=O)[C@H](Cc2ccc(-c3ccccc3)cc2)NC(=O)[C@H](Cc2ccc(-c3ccccc3)cc2)NC(=O)[C@H](CN2CCOCC2)NC(=O)CSC[C@@H](C(=O)NCC(N)=O)NC1=O` [Example 68] ({CH2CO}-[Ala(morpholin-4-yl)][Bip][Bip][Sar]YD[dR]VPVYLCG-NH2; thioether N-13) was tested, and the IC50 was under 50 nM.

`CC(C)C[C@@H]1NC(=O)[C@H](Cc2ccc(O)cc2)NC(=O)[C@H](C(C)C)NC(=O)[C@@H]2CCCN2C(=O)[C@H](C(C)C)NC(=O)[C@@H](CCCNC(=N)N)NC(=O)[C@H](CC(=O)O)NC(=O)[C@H](Cc2ccc(O)cc2)NC(=O)CN(C)C(=O)[C@H](Cc2ccc(-c3ccccc3)cc2)NC(=O)[C@H](Cc2ccc(-c3ccccc3)cc2)NC(=O)[C@H](C(C)(C)O)NC(=O)CSC[C@@H](C(=O)NCC(N)=O)NC1=O` [Example 69] ({CH2CO}-[Val(3-OH)][Bip][Bip][Sar]YD[dR]VPVYLCG-NH2; thioether N-13) showed an IC50 of under 50 nM.

With `CC(C)C[C@@H]1NC(=O)[C@H](CCCNC(=N)N)NC(=O)[C@H](C(C)C)NC(=O)[C@@H]2C[C@@H](O)CN2C(=O)[C@H](C(C)C)NC(=O)[C@H](CCCNC(=N)N)NC(=O)[C@H](CC(=O)O)NC(=O)[C@@H]2CCCN2C(=O)CN(C)C(=O)[C@H](Cc2ccc(-c3ccccc3)cc2)NC(=O)[C@H](Cc2ccc(-c3ccccc3)cc2)NC(=O)[C@H](CN2CCOCC2)NC(=O)CSC[C@@H](C(=O)NCC(N)=O)NC1=O` [Example 70] ({CH2CO}-[Ala(morpholin-4-yl)][Bip][Bip][Sar]PDRV[Hyp]VRLCG-NH2; thioether N-13) the IC50 was 200 to 2000 nM.

`CC(C)C[C@@H]1NC(=O)[C@H](CCCNC(=N)N)NC(=O)[C@H](C(C)C)NC(=O)[C@@H]2Cc3ccccc3CN2C(=O)[C@H](C(C)C)NC(=O)[C@H](CCCNC(=N)N)NC(=O)[C@H](CC(=O)O)NC(=O)[C@@H]2CCCN2C(=O)CN(C)C(=O)[C@H](Cc2ccc(-c3ccccc3)cc2)NC(=O)[C@H](Cc2ccc(-c3ccccc3)cc2)NC(=O)[C@H](CN2CCOCC2)NC(=O)CSC[C@@H](C(=O)NCC(N)=O)NC1=O` [Example 71] ({CH2CO}-[Ala(morpholin-4-yl)][Bip][Bip][Sar]PDRV[Tic]VRLCG-NH2; thioether N-13) showed an IC50 of 50 to 200 nM.

Compound `CC(C)C[C@@H]1NC(=O)[C@H](CCCNC(=N)N)NC(=O)[C@H](C(C)C)NC(=O)[C@@H]2CCN2C(=O)[C@H](C(C)C)NC(=O)[C@H](CCCNC(=N)N)NC(=O)[C@H](CC(=O)O)NC(=O)[C@@H]2CCCN2C(=O)CN(C)C(=O)[C@H](Cc2ccc(-c3ccccc3)cc2)NC(=O)[C@H](Cc2ccc(-c3ccccc3)cc2)NC(=O)[C@H](CN2CCOCC2)NC(=O)CSC[C@@H](C(=O)NCC(N)=O)NC1=O` [Example 72] ({CH2CO}-[Ala(morpholin-4-yl)][Bip][Bip][Sar]PDRV[Aze]VRLCG-NH2; thioether N-13) has an IC50 of 50 to 200 nM.
